Results as given in US7517867B2, “Topoisomerase-targeting agents” (Rutgers, The State University of New Jersey, priority 2002, dated 2009).

Row | melting point | Structure (SMILES)
1 | 212 to 214 °C | COc1cc2c(cc1OC)C(CC#N)Cc1c-2cnc2cc3c(cc12)OCO3 (centres unmarked) [Compound 209]
2 | 231 to 233 °C | COc1cc2c(cc1OC)C(CO)Cc1c-2cnc2cc3c(cc12)OCO3 (centres unmarked) [Compound 208]
